Values of other authors as cited in patent publication US20070213265A1, “Kunitz-type sequences and polypeptides” (Novo Nordisk A/S, priority 2001, published 2007).

How the values were obtained:
[1] = target: plasma kallikrein (Homo sapiens, UniProt P03952)
[2] = high doses; cardiac surgery, including cardiopulmonary bypass operations
[3] = target: granulocyte elastase (Homo sapiens, UniProt P08246)
[4] = system: collagenase
[5] = system: elastase

Sequence of granulocyte elastase (P08246 30-267): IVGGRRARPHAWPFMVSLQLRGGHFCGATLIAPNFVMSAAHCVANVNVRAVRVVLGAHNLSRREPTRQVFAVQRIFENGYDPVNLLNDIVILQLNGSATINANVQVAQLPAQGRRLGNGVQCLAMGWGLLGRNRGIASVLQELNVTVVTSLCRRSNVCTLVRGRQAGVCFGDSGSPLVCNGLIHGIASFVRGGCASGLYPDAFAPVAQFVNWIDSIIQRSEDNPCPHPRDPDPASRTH
Sequence of plasma kallikrein (P03952 20-638, species assumed): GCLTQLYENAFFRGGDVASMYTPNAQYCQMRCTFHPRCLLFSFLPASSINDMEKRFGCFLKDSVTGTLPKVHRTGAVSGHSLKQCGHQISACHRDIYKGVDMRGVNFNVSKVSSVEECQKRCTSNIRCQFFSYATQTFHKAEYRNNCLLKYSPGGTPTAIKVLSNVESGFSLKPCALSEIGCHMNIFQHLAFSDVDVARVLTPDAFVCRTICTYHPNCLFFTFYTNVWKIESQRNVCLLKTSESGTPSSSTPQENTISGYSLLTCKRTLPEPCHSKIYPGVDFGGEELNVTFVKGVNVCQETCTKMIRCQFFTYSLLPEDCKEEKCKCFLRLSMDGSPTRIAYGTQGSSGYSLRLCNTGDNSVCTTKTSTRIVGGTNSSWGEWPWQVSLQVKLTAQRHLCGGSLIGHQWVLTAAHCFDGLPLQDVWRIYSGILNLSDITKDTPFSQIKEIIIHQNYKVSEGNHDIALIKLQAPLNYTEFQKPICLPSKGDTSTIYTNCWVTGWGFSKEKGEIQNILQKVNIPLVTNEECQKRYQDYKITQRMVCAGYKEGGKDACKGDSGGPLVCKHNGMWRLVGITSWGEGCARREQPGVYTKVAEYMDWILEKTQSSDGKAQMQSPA

aprotinin (3-58, Arg15, Ala17, Ser42)
plasma kallikrein inhibitory effect [1]: excellent

aprotinin
blood loss [2]: significantly reduces blood loss

aprotinin(1-58, Val15)
selectivity for granulocyte elastase [3]: relatively high selectivity | inhibitory effect on collagenase [4]: inhibitory effect

Aprotinin (1-58, Ala15)
effect on elastase [5]: weak effect
